# System: hippocampal slice cultures
# Experiment: Impedance measurement (TIECIR) of organotypic hippocampal slice cultures after induction of tau-hyperphosphorylation
# Type: cell-based
# Conditions: 1 μM, hippocampal slices of 8-9 day old rats, 7 days in culture, 100 Hz to 1 MHz, 10 mV, stable for 9 hours before application, remained small within the next seven hours
# Method: The impedance changes caused by tau-hyperphosphorylation (FIG. 11) of hippocampal slices that were prepared from 8-9 day old rats were measured using the device according to the present invention. Six to eight hippocampal slices of 400 μm thickness were places on a aluminiumoxyd membrane (0.02 μm pore size) of a 6-well recording chamber and cultured for 7 days in 50% minimum essential media, 25% Hank's media, and 25% horse serum supplemented with L-glutamine and antibiotics. Impedance recording was performed by using a Agilent 4294A impedance analyser (Agilent Technologies Deutschland GmbH, Germany) in combination with a multiplexer (NI-SCXI-1153, National Instruments, USA).
# 24 hours before impedance measurement was carried out, medium replaced by fresh culture medium. The impedance was recorded in a frequency range of 100 Hz to 1 MHz by applying a voltage of 10 mV across a large top electrode and 60 substrate integrated bottom electrodes of 30 μm in diameter.
# For measuring hippocampal slice cultures, the TIECIR method was used. Organotypic slice cultures were transiently covered with medium during impedance measurement, which usually takes less than 30 seconds for a single bottom electrode. […]
smiles,measurement,value
C=C1[C@@H](O)[C@@H]2O[C@]3(CC[C@H](/C=C/[C@@H](C)[C@@H]4CC(C)=C[C@@]5(O[C@H](C[C@@](C)(O)C(=O)O)CC[C@H]5O)O4)O3)CC[C@H]2O[C@@H]1[C@@H](O)C[C@H](C)[C@H]1O[C@@]2(CCCCO2)CC[C@H]1C [ocadaic acid],normalized impedance (normalized against non-covered membrane),10%
